Experimental data reported in patent publication US12509460B2 (Skyhawk Therapeutics, Inc., priority 2019, dated 2025).
Read-outs that look alike come from different tables or passages of the source.

How the values were obtained:
[1] = Quantitative splicing assay (HTT), qPCR; type: cell-based, human; settings: Homo sapiens, GM04724, 24 h, GM04724 lymphoblasts, read-out: HTT Splicing: E49-50 EC50
Method in brief: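 TaqMan qPCR on cell-lysate cDNA quantifies cryptic-exon inclusion from HTT intron 49. Lymphoblasts plated at 50,000 cells/well had received compound for 24 h, 0.15 nM-2.5 uM range, 0.1% DMSO.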

[2] = system: mHTT protein in GM04724 (CAG 70/20) Huntington's disease patient lymphoblast cells; assay: mHTT protein assay, 2B7-MW1 assay via Mesoscale Discovery (MSD); type: cell-based, human
Method in brief: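 Signal from the 2B7-MW1 antibody pair on MSD, rising with polyQ length and smaller HTT fragments, measured mHTT after 48 h compound exposure (0.6 nM–10 μM) in GM04724 cells. A parallel replicate plate gave CellTiter Glo viability.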

[3] = system: SMN FL and SMN Δ7 in spinal muscular atrophy (SMA) patient fibroblasts (GM03813, Coriell); assay: Quantitative splicing assay (SMN), qPCR; type: cell-based, human; settings: Homo sapiens, Fibroblast, 24 h, read-out: SMN2 Splicing FL EC50
Experimental: Spinal muscular atrophy (SMA) patient fibroblasts (GM03813, Coriell) are plated in 96-well plates at 50,000 cells/well. […] Treated cells are lysed and cDNA synthesized using the Fast Advanced Cells-to-Ct kit (Thermofisher A35378) according to the manufacturer's instructions. 2 μL of each cDNA are used in qPCR reactions. […] Reactions are run in a Quant Studio 6 qPCR instrument with default settings.

[4] = system: SMN protein in spinal muscular atrophy (SMA) patient fibroblasts (GM03813, Coriell); assay: SMN protein assay, Mesoscale Discovery (MSD); type: cell-based, human; settings: for EC50: read-out: SMN2 protein EC50
Method in brief: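 Absolute SMN levels were quantified by MSD against an SMN protein standard curve (1 μg/ml to 19.5 pg/ml) run on each plate. Samples were lysates of GM03813 patient fibroblasts (7000 cells/well) treated 48 hours with compound doses from 2.5 μM down to 0.6 nM.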

[5] = system: MDR1 (P-gp); assay: Blood-brain-barrier (BBB) penetration potential via MDCK-MDR1 permeability assay; settings: dog; for Papp A→B at 120 min, 5 μM: MDCK-MDR1, pH 7.4, MDCK-MDR1: Papp A-B; for Papp B→A at 120 min, 5 μM: MDCK-MDR1, pH 7.4, MDCK-MDR1: Papp B-A
[6] = system: MDR1-MDCK cell monolayers; assay: as above
[7] = system: MDR1; assay: as above; settings: dog, MDCK-MDR1, pH 7.4, MDCK-MDR1: Efflux
[8] = GM04724 Huntington's disease patient lymphoblasts
[9] = SMA patient fibroblasts GM03813, 24 h, qPCR
[10] = SMA patient fibroblasts GM03813, 48 hours, MSD
[11] = GM04724 (CAG 70/20) Huntington's disease patient lymphoblasts
[12] = SMA patient fibroblasts (GM03813)
[13] = SMA patient fibroblasts (GM03813), 48 hours

SMILES | EC50 ([1]; qPCR) | EC50 [2, 8] | EC50 [3, 9] | EC50 [4, 10] | Papp A→B at 120 min, 5 μM ([5]; A-B direction) | Papp B→A at 120 min, 5 μM ([5]; B-A direction) | MDCK-MDR1: % Recov A-B ([6]; A-B direction) | MDCK-MDR1: % Recov B-A ([6]; B-A direction) | efflux ratio at 120 min, 5 μM ([7]; efflux ratio) | SMN2 protein EC50 [4, 10] | EC50 [1] | EC50 [2, 11] | EC50 [3, 12] | EC50 [4, 13] | Papp A→B at 120 min, 5 μM ([5]; A-B) | Papp B→A at 120 min, 5 μM ([5]; B-A) | MDCK-MDR1: % Recov A-B ([6]; A-B) | MDCK-MDR1: % Recov B-A ([6]; B-A) | efflux ratio at 120 min, 5 μM [7]
Cc1ccc(-c2ccc(-c3ccc(N(C)[C@H]4C[C@@H]5CC[C@@H](N5)[C@H]4F)nn3)c(O)c2)nn1 (single isomer, unassigned) [Compound 25B] | 16 to 50 nM | 16 to 50 nM | 16 to 50 nM | 0.01 to 15 nM | 1.61 ×10⁻⁶ cm/s | 46.8 ×10⁻⁶ cm/s | 105% | 108% | 29 |  |  |  |  |  |  |  |  |  | 
CN(c1ccc(-c2ccc(-c3cnccn3)cc2O)nn1)[C@H]1C[C@@H]2CCC[C@@H](N2)[C@H]1F [Compound 24B, 2-(6-(((1R,2R,3S,5S)-2-fluoro-9-azabicyclo[3.3.1]nonan-3-yl)(methyl)amino)pyridazin-3-yl)-5-(pyrazin-2-yl)phenol] | 0.01 to 15 nM | 0.01 to 15 nM | 0.01 to 15 nM | 0.01 to 15 nM | 5.99 ×10⁻⁶ cm/s | 33.8 ×10⁻⁶ cm/s | 73% | 91% | 6 |  |  |  |  |  |  |  |  |  | 
CN(c1ccc(-c2ccc(-n3ccnn3)cc2O)nn1)[C@H]1C[C@@H]2CC[C@@H](N2)[C@H]1F [Compound 61B, 2-(6-(((1R,2R,3S,5S)-2-fluoro-8-azabicyclo[3.2.1]octan-3-yl)(methyl)amino)pyridazin-3-yl)-5-(1H-1,2,3-triazol-1-yl)phenol] | 0.01 to 15 nM | 0.01 to 15 nM | 0.01 to 15 nM | 0.01 to 15 nM | 3.79 ×10⁻⁶ cm/s | 45.8 ×10⁻⁶ cm/s | 98% | 93% | 12 |  |  |  |  |  |  |  |  |  | 
Cn1cnc2cc(-c3ccc(N(C4CC4)[C@H]4C[C@@H]5CC[C@@H](N5)[C@H]4F)nn3)c(O)cc2c1=O [Compound 56B, 7-(6-(cyclopropyl((1R,2R,3S,5S)-2-fluoro-8-azabicyclo[3.2.1]octan-3-yl)amino)pyridazin-3-yl)-6-hydroxy-3-methylquinazolin-4(3H)-one] | 0.01 to 15 nM | 0.01 to 15 nM | 16 to 50 nM |  | 1.12 ×10⁻⁶ cm/s | 51.2 ×10⁻⁶ cm/s | 96% | 97% | 46 | E (501 ≤ E ≤ 10.000) |  |  |  |  |  |  |  |  | 
Cc1cnc(-c2ccc(-c3ccc(N(C)[C@H]4C[C@@H]5CCC[C@@H](N5)[C@H]4F)nn3)c(O)c2)cn1 [Compound 26B, 2-(6-(((1R,2R,3S,5S)-2-fluoro-9-azabicyclo[3.3.1]nonan-3-yl)(methyl)amino)pyridazin-3-yl)-5-(5-methylpyrazin-2-yl)phenol] | 51 to 100 nM | 0.01 to 15 nM | 51 to 100 nM | 0.01 to 15 nM | 2.76 ×10⁻⁶ cm/s | 45.1 ×10⁻⁶ cm/s | 60% | 81% | 16 |  |  |  |  |  |  |  |  |  | 
CN(c1ccc(-c2ccc(-n3ccnn3)cc2O)nn1)[C@@H]1C[C@H]2CCC[C@H](N2)[C@@H]1F [Compound 62A, 2-(6-(((1S,2S,3R,5R)-2-fluoro-9-azabicyclo[3.3.1]nonan-3-yl)(methyl)amino)pyridazin-3-yl)-5-(1H-1,2,3-triazol-1-yl)phenol] | 0.01 to 15 nM | 0.01 to 15 nM | 16 to 50 nM | 16 to 50 nM | 3.37 ×10⁻⁶ cm/s | 61.4 ×10⁻⁶ cm/s | 113% | 109% | 18 |  |  |  |  |  |  |  |  |  | 
Cc1nc2cc(O)c(-c3ccc(N(C)[C@@H]4C[C@H]5CC[C@H](N5)[C@@H]4F)nn3)cc2s1 [Compound 116A, 6-(6-(((1S,2S,3R,5R)-2-fluoro-8-azabicyclo[3.2.1]octan-3-yl)(methyl)amino)pyridazin-3-yl)-2-methylbenzo[d]thiazol-5-ol] |  |  |  |  |  |  |  |  |  |  | 16 to 50 nM | 0.01 to 15 nM | 51 to 100 nM | 0.01 to 15 nM | 4.39 ×10⁻⁶ cm/s | 42.9 ×10⁻⁶ cm/s | 86% | 88% | 10
CN(c1ccc(-c2cc(F)c(-c3ccoc(=O)c3)cc2O)nn1)[C@H]1C[C@@H]2CC[C@@H](N2)[C@H]1F [Compound 17B, 4-(2-fluoro-4-(6-(((1R,2R,3S,5S)-2-fluoro-8-azabicyclo[3.2.1]octan-3-yl)(methyl)amino)pyridazin-3-yl)-5-hydroxyphenyl)-2H-pyran-2-one] | 16 to 50 nM | 16 to 50 nM | 51 to 100 nM | 16 to 50 nM | 1.91 ×10⁻⁶ cm/s | 36.8 ×10⁻⁶ cm/s | 62% | 79% | 19 |  |  |  |  |  |  |  |  |  | 
CN(c1ccc(-c2ccc(-c3cn[nH]c3)cc2O)nn1)[C@@H]1C[C@H]2CC[C@H](N2)[C@@H]1F (single isomer, unassigned) [Compound 42A] | 0.01 to 15 nM | 0.01 to 15 nM | 0.01 to 15 nM | 0.01 to 15 nM | 0.86 ×10⁻⁶ cm/s | 36.8 ×10⁻⁶ cm/s | 87% | 91% | 43 |  |  |  |  |  |  |  |  |  | 
Cc1nc2cc(-c3ccc(N(C)[C@H]4C[C@@H]5CC[C@@H](N5)[C@H]4F)nn3)c(O)cc2c(=O)n1C [Compound 114B, 7-(6-(((1R,2R,3S,5S)-2-fluoro-8-azabicyclo[3.2.1]octan-3-yl)(methyl)amino)pyridazin-3-yl)-6-hydroxy-2,3-dimethylquinazolin-4(3H)-one] |  |  |  |  |  |  |  |  |  |  | 0.01 to 15 nM | 0.01 to 15 nM | 0.01 to 15 nM | 0.01 to 15 nM | 0.29 ×10⁻⁶ cm/s | 43 ×10⁻⁶ cm/s | 88% | 94% | 150
CN(c1ccc(-c2ccc(-n3ccnc3)cc2O)nn1)[C@H]1C[C@@H]2CCC[C@@H](N2)[C@H]1F [Compound 11B, 2-(6-(((1R,2R,3S,5S)-2-fluoro-9-azabicyclo[3.3.1]nonan-3-yl)(methyl)amino)pyridazin-3-yl)-5-(1H-imidazol-1-yl)phenol] | 0.01 to 15 nM | 0.01 to 15 nM | 0.01 to 15 nM | 16 to 50 nM | 2.4 ×10⁻⁶ cm/s | 55 ×10⁻⁶ cm/s | 77% | 89% | 23 |  |  |  |  |  |  |  |  |  | 
CN(c1ccc(-c2ccc(-c3cc[nH]n3)cc2O)nn1)[C@H]1C[C@@H]2CC[C@@H](N2)[C@H]1F (single isomer, unassigned) [Compound 33B] | 0.01 to 15 nM | 0.01 to 15 nM | 16 to 50 nM | 0.01 to 15 nM | 1.75 ×10⁻⁶ cm/s | 53 ×10⁻⁶ cm/s | 87% | 82% | 30 |  |  |  |  |  |  |  |  |  | 
CN(c1ccc(-c2cc3cccnc3cc2O)nn1)[C@@H]1C[C@H]2CCC[C@H](N2)[C@@H]1F [Compound 41A, 6-(6-(((1S,2S,3R,5R)-2-fluoro-9-azabicyclo[3.3.1]nonan-3-yl)(methyl)amino)pyridazin-3-yl)quinolin-7-ol] | 51 to 100 nM | 0.01 to 15 nM | 16 to 50 nM | 0.01 to 15 nM | 2 ×10⁻⁶ cm/s | 48.1 ×10⁻⁶ cm/s | 64% | 98% | 24 |  |  |  |  |  |  |  |  |  | 
